Test results reported in patent US20260008818A1, “CYCLIC PEPTIDE OR SALT THEREOF, AND USES THEREOF” (FUJIFILM Corporation, priority 2023, published 2026).
Bridge positions count the residues as written; N and C are the ends. Ends that are not written are not given here. COCH2 = acetyl group that carries the bridge

Tested on: Recombinant Human FGFR1 alpha (IIIc) Fc Chimera Protein
Experiment: Binding affinity of enzymatically synthesized cyclic peptide to FGFR by ELISA
Details: luminescence signal at reaction concentration 10 nmol/L, SEQ ID NO: 39 standardized to 1, enzyme synthesis product
Procedure, shortened: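 Plate-immobilized FGFR1α(IIIc)-Fc (5 ng/well) incubated with Myc-tagged cyclic peptide 3 h at room temperature; bound peptide detected with anti-Myc antibody (2 h) and chemiluminescence. Signal is FGFR minus no-FGFR wells, normalized to SEQ ID NO: 39 at 10 nmol/L and graded A–D.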

116 (HCSYERLQFHGHEAQFRVK(COCH2)V; thioether 2-19 (inferred)) [compound 116]
Evaluation result of binding affinity to FGFR: C (0.1 or more and less than 0.5)

231 (HK(COCH2)TFERLIFLGHIAPFWVCR; thioether 2-19 (inferred)) [compound 231]
Evaluation result of binding affinity to FGFR: B (0.5 or more and less than 0.7)

334 (HCSYERLIFLGHIAPFWVK(COCH2)V; thioether 2-19 (inferred)) [compound 334]
Evaluation result of binding affinity to FGFR: B (0.5 or more and less than 0.7)

279 (YCTIQRLWLLHEAPFWVK(COCH2)T; thioether 2-18 (inferred)) [compound 279]
Evaluation result of binding affinity to FGFR: C (0.1 or more and less than 0.5)

277 (QCYVQLYVWGHPAPFYWDK(COCH2)I; thioether 2-19 (inferred)) [compound 277]
Evaluation result of binding affinity to FGFR: C (0.1 or more and less than 0.5)

340 (HCLVKRLVSAWGELAPFWVK(COCH2)V; thioether 2-20) [compound 340]
Evaluation result of binding affinity to FGFR: C (0.1 or more and less than 0.5)

290 (HCSYERLQFHGHKAPFRVK(COCH2)V; thioether 2-19 (inferred)) [compound 290]
Evaluation result of binding affinity to FGFR: B (0.5 or more and less than 0.7)

179 (HCSYERLQFHGHIAPFRVK(COCH2)V; thioether 2-19 (inferred)) [compound 179]
Evaluation result of binding affinity to FGFR: A (0.7 or more)

40 (QCDVWYWLGHRVPFHPVK(COCH2)V; thioether 2-18 (inferred)) [compound 40]
Evaluation result of binding affinity to FGFR: B (0.5 or more and less than 0.7)

330 (HCSYERLVFHGHIAPFWVK(COCH2)V; thioether 2-19 (inferred)) [compound 330]
Evaluation result of binding affinity to FGFR: A (0.7 or more)

343 (QCWQQAYAYFPHVLAPFLVK(COCH2)S; thioether 2-20) [compound 343]
Evaluation result of binding affinity to FGFR: C (0.1 or more and less than 0.5)

365 (NCWGYTYIIPFNYISK(COCH2)T; thioether 2-16) [compound 365]
Evaluation result of binding affinity to FGFR: B (0.5 or more and less than 0.7)

271 (QCWSQVSTPWGHTAPFIFK(COCH2)D; thioether 2-19 (inferred)) [compound 271]
Evaluation result of binding affinity to FGFR: B (0.5 or more and less than 0.7)

259 (GCRPVVTHHPWAPFWVVTK(COCH2)E; thioether 2-19 (inferred)) [compound 259]
Evaluation result of binding affinity to FGFR: B (0.5 or more and less than 0.7)

140 (HCSYETLQFHGHEAPFRVK(COCH2)V; thioether 2-19 (inferred)) [compound 140]
Evaluation result of binding affinity to FGFR: C (0.1 or more and less than 0.5)

292 (HCSYERLQFHGHEAPFKVK(COCH2)V; thioether 2-19 (inferred)) [compound 292]
Evaluation result of binding affinity to FGFR: B (0.5 or more and less than 0.7)

234 (HK(COCH2)TWERLRFLGHIAPFWVCR; thioether 2-19 (inferred)) [compound 234]
Evaluation result of binding affinity to FGFR: A (0.7 or more)

161 (HCSYERLQYHGHEAPFRVK(COCH2)V; thioether 2-19 (inferred)) [compound 161]
Evaluation result of binding affinity to FGFR: C (0.1 or more and less than 0.5)

274 (QCYVQLYFWGHPAPFYWDK(COCH2)T; thioether 2-19 (inferred)) [compound 274]
Evaluation result of binding affinity to FGFR: C (0.1 or more and less than 0.5)

268 (VCRLSFWGHAAPFLSVK(COCH2)T; thioether 2-17 (inferred)) [compound 268]
Evaluation result of binding affinity to FGFR: C (0.1 or more and less than 0.5)

102 (HCSSERLQFHGHEAPFRVK(COCH2)V; thioether 2-19 (inferred)) [compound 102]
Evaluation result of binding affinity to FGFR: C (0.1 or more and less than 0.5)

135 (HCSYEPLQFHGHEAPFRVK(COCH2)V; thioether 2-19 (inferred)) [compound 135]
Evaluation result of binding affinity to FGFR: C (0.1 or more and less than 0.5)

371 (CERLIFHGHEAPFWVK(COCH2)V; thioether 1-16) [compound 371]
Evaluation result of binding affinity to FGFR: A (0.7 or more)

312 (HCVWERLIFLGHIAPFWVK(COCH2)R; thioether 2-19 (inferred)) [compound 312]
Evaluation result of binding affinity to FGFR: C (0.1 or more and less than 0.5)

58 (HCSYARLQFHGHEAPFRVK(COCH2)V; thioether 2-19 (inferred)) [compound 58]
Evaluation result of binding affinity to FGFR: B (0.5 or more and less than 0.7)

177 (HCSYERLQFHGHPAPFRVK(COCH2)V; thioether 2-19 (inferred)) [compound 177]
Evaluation result of binding affinity to FGFR: A (0.7 or more)

119 (HCSYERLQFHGHEAPYRVK(COCH2)V; thioether 2-19 (inferred)) [compound 119]
Evaluation result of binding affinity to FGFR: C (0.1 or more and less than 0.5)

57 (HCAYERLQFHGHEAPFRVK(COCH2)V; thioether 2-19 (inferred)) [compound 57]
Evaluation result of binding affinity to FGFR: A (0.7 or more)

128 (HCSYNRLQFHGHEAPFRVK(COCH2)V; thioether 2-19 (inferred)) [compound 128]
Evaluation result of binding affinity to FGFR: B (0.5 or more and less than 0.7)

212 (HCSYERLQFHGHEAPFRVK(COCH2)I; thioether 2-19 via Ac; not fully specified) [compound 212]
Evaluation result of binding affinity to FGFR: A (0.7 or more)

263 (ICRLSWFGFKAPFWIVDSK(COCH2)Q; thioether 2-19 (inferred)) [compound 263]
Evaluation result of binding affinity to FGFR: B (0.5 or more and less than 0.7)

132 (HCSYDRLQFHGHEAPFRVK(COCH2)V; thioether 2-19 (inferred)) [compound 132]
Evaluation result of binding affinity to FGFR: B (0.5 or more and less than 0.7)

42 (RCWDQLTFYGHQAPFYVK(COCH2)G; thioether 2-18 (inferred)) [compound 42]
Evaluation result of binding affinity to FGFR: A (0.7 or more)

367 (WCRTWLWFEIPFWYQK(COCH2)E; thioether 2-16) [compound 367]
Evaluation result of binding affinity to FGFR: C (0.1 or more and less than 0.5)

369 (HASYERCIFHGHEAPFWVK(COCH2)V; thioether 7-19) [compound 369]
Evaluation result of binding affinity to FGFR: C (0.1 or more and less than 0.5)

229 (HK(COCH2)VWERLIFLGHIAPFWVCR; thioether 2-19 (inferred)) [compound 229]
Evaluation result of binding affinity to FGFR: B (0.5 or more and less than 0.7)

48 (HCKVQQLWLQGHYAPYWVK(COCH2)S; thioether 2-19 (inferred)) [compound 48]
Evaluation result of binding affinity to FGFR: C (0.1 or more and less than 0.5)

256 (NCWGYHYTIPFIK(COCH2)F; thioether 2-13 (inferred)) [compound 256]
Evaluation result of binding affinity to FGFR: B (0.5 or more and less than 0.7)

109 (HCSYERLQFHSHEAPFRVK(COCH2)V; thioether 2-19 (inferred)) [compound 109]
Evaluation result of binding affinity to FGFR: C (0.1 or more and less than 0.5)

121 (HCSYPRLQFHGHEAPFRVK(COCH2)V; thioether 2-19 (inferred)) [compound 121]
Evaluation result of binding affinity to FGFR: A (0.7 or more)

75 (NCSYERLQFHGHEAPFRVK(COCH2)V; thioether 2-19 (inferred)) [compound 75]
Evaluation result of binding affinity to FGFR: A (0.7 or more)

273 (QCYVQLYVWGHPAPFYWDK(COCH2)N; thioether 2-19 (inferred)) [compound 273]
Evaluation result of binding affinity to FGFR: C (0.1 or more and less than 0.5)

49 (HCEWTQLIYYGFSAPYIVK(COCH2)R; thioether 2-19 (inferred)) [compound 49]
Evaluation result of binding affinity to FGFR: C (0.1 or more and less than 0.5)

249 (RCWKVLKVLGHRAPFLIAK(COCH2)Y; thioether 2-19 (inferred)) [compound 249]
Evaluation result of binding affinity to FGFR: C (0.1 or more and less than 0.5)

360 (DCWGWHREFVPFIK(COCH2)I; thioether 2-14) [compound 360]
Evaluation result of binding affinity to FGFR: B (0.5 or more and less than 0.7)
